# In US20240228555A9, “ANTIMICROBIAL PEPTIDOMIMETICS” (Basilea Pharmaceutica International AG, Allschwil, priority 2020, published 2024):
# Where a SMILES comes first, the peptide text is derived from it.
# Key:
# [1] = system: Escherichia coli ATCC 25922; details: ATCC 25922
# Outline: (§1)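 Broth microdilution; cation-adjusted MHII; inoculum ~5×10^5 CFU/mL from 0.5 McFarland saline suspension; peptide two-fold serial dilutions; polysorbate 80 0.002% final; peptide stock 1 mg/mL in water.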
# [2] = system: Escherichia coli MCR-1 Af 45; details: Mueller-Hinton broth II, no visible growth after 18-20 hours at 35° C.
# Outline: as §1
# [3] = system: Klebsiella pneumoniae SSI3010; details: SSI3010
# Outline: as §1
# [4] = system: human red blood cells (hRBC); type: cell-based; details: red cells of human, 1 h, 0.2 g/L
# Outline: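 PBS-washed human erythrocytes (20% v/v) were incubated with compounds at 200 μg/mL for 1 h at 37° C with shaking. Supernatant OD540 was read after 8-fold dilution; hemolysis % = OD540 peptide / OD540 of the 100% lysis control (2.5% Triton X-100 in H2O) ×100, with PBS as 0%.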
Structure (SMILES),Escherichia coli ATCC 25922 MIC [1],Escherichia coli MCR-1 Af 45 MIC [2],Klebsiella pneumoniae SSI3010 MIC [3],Hemolysis at 0.2 g/L [4]
"CC[C@H](C)[C@H](NC(=O)[C@@H](NC(=O)[C@@H]1C[C@@H](O)CN1C(=O)[C@@H](N)C(C)C)[C@@H](C)CC)C(=O)N[C@@H](Cc1ccc(O)cc1)C(=O)N[C@@H]1C(=O)N[C@@H](CC(N)=O)C(=O)N[C@@H](CCCNC(=N)N)C(=O)N[C@@H](CCN)C(=O)N[C@@H]([C@@H](C)O)C(=O)N[C@H](CCN)C(=O)N[C@@H]([C@@H](C)CC)C(=O)N[C@H](C(=O)N[C@@H](CCN)C(=O)N[C@@H](CCN)C(=O)N[C@@H](Cc2ccc(O)cc2)C(=O)O)CSSC1(C)C [Example 83, Val-Hyp-Ile-Ile-Tyr-Pen-Asn-Arg-Dab-Thr-^DDab-Ile-Cys-Dab-Dab-Tyr] (HELM PEPTIDE1{V.[Hyp].I.I.Y.[Pen].N.R.[Dab].T.[NCC[C@@H](N[*:1])C(=O)[*:2]].I.C.[Dab].[Dab].Y}$PEPTIDE1,PEPTIDE1,6:R3-13:R3$$$V2.0)",0.25 µg/mL,0.25 µg/mL,0.5 µg/mL,<1%
"CC[C@H](C)[C@H](NC(=O)[C@@H]1C[C@@H](O)CN1C(=O)[C@@H](N)C(C)C)C(=O)N[C@@H](CCCCNC)C(=O)N[C@@H](Cc1ccc(O)cc1)C(=O)N[C@@H]1C(=O)N[C@@H](CC(N)=O)C(=O)N[C@@H](CCCNC(=N)N)C(=O)N[C@@H](CCN)C(=O)N[C@@H]([C@@H](C)O)C(=O)N[C@H](CCN)C(=O)N[C@@H](CCCCN)C(=O)N[C@H](C(=O)N[C@@H](CCN)C(=O)N[C@@H](CCCNC(=N)N)C(=O)N[C@@H](Cc2ccc(O)cc2)C(=O)O)CSSC1(C)C [Example 125, Val-Hyp-Ile-Lys(Me)-Tyr-Pen-Asn-Arg-Dab-Thr-^DDab-Lys-Cys-Dab-Arg-Tyr] (HELM PEPTIDE1{V.[Hyp].I.[CNCCCC[C@H](N[*:1])C(=O)[*:2]].Y.[Pen].N.R.[Dab].T.[NCC[C@@H](N[*:1])C(=O)[*:2]].K.C.[Dab].R.Y}$PEPTIDE1,PEPTIDE1,6:R3-13:R3$$$V2.0)",0.125 µg/mL,0.03125 µg/mL,0.5 µg/mL,<1%
"CC[C@H](C)[C@H](NC(=O)[C@@H](NC(=O)[C@@H]1C[C@@H](O)CN1C(=O)[C@@H](N)C(C)C)[C@@H](C)CC)C(=O)N[C@@H](Cc1ccc(O)cc1)C(=O)N[C@@H]1C(=O)N[C@@H](CC(N)=O)C(=O)N[C@@H](CCCNC(=N)N)C(=O)N[C@@H](CCN)C(=O)N[C@@H]([C@@H](C)O)C(=O)N[C@H](CCN)C(=O)N[C@@H](CCCCN)C(=O)N[C@H](C(=O)N[C@@H](CCN)C(=O)N[C@@H](CCCN)C(=O)N[C@@H](Cc2ccc(O)cc2)C(=O)O)CSSC1(C)C [Example 85, Val-Hyp-Ile-Ile-Tyr-Pen-Asn-Arg-Dab-Thr-^DDab-Lys-Cys-Dab-Orn-Tyr] (HELM PEPTIDE1{V.[Hyp].I.I.Y.[Pen].N.R.[Dab].T.[NCC[C@@H](N[*:1])C(=O)[*:2]].K.C.[Dab].[Orn].Y}$PEPTIDE1,PEPTIDE1,6:R3-13:R3$$$V2.0)",0.125 µg/mL,0.0625 µg/mL,0.25 µg/mL,<1%
"CC[C@H](C)[C@H](NC(=O)[C@@H](NC(=O)[C@@H]1C[C@@H](O)CN1C(=O)[C@@H](N)C(C)C)[C@@H](C)CC)C(=O)N[C@@H](Cc1ccc(O)cc1)C(=O)N[C@@H]1C(=O)N[C@@H](CC(N)=O)C(=O)N[C@@H](CCCNC(=N)N)C(=O)N[C@@H](CCN)C(=O)N[C@@H]([C@@H](C)O)C(=O)N[C@H](CCN)C(=O)N[C@@H](CO)C(=O)N[C@H](C(=O)N[C@@H](CCN)C(=O)N[C@@H](CCCNC(=N)N)C(=O)N[C@@H](Cc2ccc(O)cc2)C(=O)O)CSSC1(C)C [Example 101, Val-Hyp-Ile-Ile-Tyr-Pen-Asn-Arg-Dab-Thr-^DDab-Cys-Dab-Arg-Tyr]",0.125 µg/mL,0.125 µg/mL,0.25 µg/mL,<1%
"CC[C@H](C)[C@H](NC(=O)[C@@H](NC(=O)[C@@H]1C[C@@H](N)CN1C(=O)[C@@H](N)C(C)C)[C@@H](C)CC)C(=O)N[C@@H](Cc1ccc(O)cc1)C(=O)N[C@@H]1C(=O)N[C@@H](CC(N)=O)C(=O)N[C@@H](CCCNC(=N)N)C(=O)N[C@@H](CCN)C(=O)N[C@@H]([C@@H](C)O)C(=O)N[C@H](CCN)C(=O)N[C@@H]([C@@H](C)CC)C(=O)N[C@H](C(=O)N[C@@H](CCN)C(=O)N[C@@H](CCCNC(=N)N)C(=O)N[C@@H](Cc2ccc(O)cc2)C(=O)O)CSSC1(C)C [Example 90, Val-Pro((4R)NH2)-Ile-Ile-Tyr-Pen-Asn-Arg-Dab-Thr-^DDab-Ile-Cys-Dab-Arg-Tyr] (HELM PEPTIDE1{V.[N[C@@H]1C[C@@H](C(=O)[*:2])N([*:1])C1].I.I.Y.[Pen].N.R.[Dab].T.[NCC[C@@H](N[*:1])C(=O)[*:2]].I.C.[Dab].R.Y}$PEPTIDE1,PEPTIDE1,6:R3-13:R3$$$V2.0)",0.125 µg/mL,0.0625 µg/mL,0.25 µg/mL,<1%
"CC[C@H](C)[C@H](NC(=O)[C@@H]1C[C@@H](O)CN1C(=O)[C@@H](N)C(C)C)C(=O)N[C@H](C(=O)N[C@@H](Cc1ccc(O)cc1)C(=O)N[C@@H]1C(=O)N[C@@H](CC(N)=O)C(=O)N[C@@H](CCCNC(=N)N)C(=O)N[C@@H](CCN)C(=O)N[C@@H](CO)C(=O)N[C@H](CCN)C(=O)N[C@@H](CCCCN)C(=O)N[C@H](C(=O)N[C@@H](CCN)C(=O)N[C@@H](CCN)C(=O)N[C@@H](Cc2ccc(O)cc2)C(=O)O)CSSC1(C)C)[C@@H](C)O [Example 77, Val-Hyp-Ile-Thr-Tyr-Pen-Asn-Arg-Dab-Ser-^DDab-Lys-Cys-Dab-Dab-Tyr] (HELM PEPTIDE1{V.[Hyp].I.T.Y.[Pen].N.R.[Dab].S.[NCC[C@@H](N[*:1])C(=O)[*:2]].K.C.[Dab].[Dab].Y}$PEPTIDE1,PEPTIDE1,6:R3-13:R3$$$V2.0)",0.0625 µg/mL,0.0625 µg/mL,0.125 µg/mL,<1%
"CC[C@H](C)[C@H](NC(=O)[C@@H]1C[C@@H](O)CN1C(=O)[C@@H](N)C(C)C)C(=O)N[C@@H](CCN)C(=O)N[C@@H](Cc1ccc(O)cc1)C(=O)N[C@@H]1C(=O)N[C@@H](CC(N)=O)C(=O)N[C@@H](CCCNC(=N)N)C(=O)N[C@@H](CCN)C(=O)N[C@@H]([C@@H](C)O)C(=O)N[C@H](CCN)C(=O)N[C@@H](CCCNC(N)=O)C(=O)N[C@H](C(=O)N[C@@H](CCN)C(=O)N[C@@H](CO)C(=O)N[C@@H](Cc2ccc(O)cc2)C(=O)O)CSSC1(C)C [Example 108, Val-Hyp-Ile-Dab-Tyr-Pen-Asn-Arg-Dab-Thr-^DDab-Cit-Cys-Dab-Ser-Tyr] (HELM PEPTIDE1{V.[Hyp].I.[Dab].Y.[Pen].N.R.[Dab].T.[NCC[C@@H](N[*:1])C(=O)[*:2]].[Cit].C.[Dab].S.Y}$PEPTIDE1,PEPTIDE1,6:R3-13:R3$$$V2.0)",0.25 µg/mL,0.125 µg/mL,0.25 µg/mL,<1%
"CC[C@H](C)[C@H](NC(=O)[C@@H]1C[C@@H](N)CN1C(=O)[C@@H](N)C(C)C)C(=O)N[C@H](C(=O)N[C@@H](Cc1ccc(O)cc1)C(=O)N[C@@H]1C(=O)N[C@@H](CC(N)=O)C(=O)N[C@@H](CCCNC(=N)N)C(=O)N[C@@H](CCN)C(=O)N[C@@H]([C@@H](C)O)C(=O)N[C@H](CCN)C(=O)N[C@@H](CCCCN)C(=O)N[C@H](C(=O)N[C@@H](CO)C(=O)N[C@H](C(=O)N[C@@H](Cc2ccc(O)cc2)C(=O)O)[C@@H](C)O)CSSC1(C)C)[C@@H](C)O [Example 119, Val-Pro((4R)NH2)-Ile-Thr-Tyr-Pen-Asn-Arg-Dab-Thr-^DDab-Lys-Cys-Ser-Thr-Tyr] (HELM PEPTIDE1{V.[N[C@@H]1C[C@@H](C(=O)[*:2])N([*:1])C1].I.T.Y.[Pen].N.R.[Dab].T.[NCC[C@@H](N[*:1])C(=O)[*:2]].K.C.S.T.Y}$PEPTIDE1,PEPTIDE1,6:R3-13:R3$$$V2.0)",0.25 µg/mL,0.25 µg/mL,0.25 µg/mL,<1%
"CC[C@H](C)[C@H](NC(=O)[C@@H]1CCCCN1C(=O)[C@@H](N)C(C)C)C(=O)N[C@H](C(=O)N[C@@H](Cc1ccc(O)cc1)C(=O)N[C@@H]1C(=O)N[C@@H](CC(N)=O)C(=O)N[C@@H](CCCNC(=N)N)C(=O)N[C@@H](CCN)C(=O)N[C@@H]([C@@H](C)O)C(=O)N[C@H](CCN)C(=O)N[C@@H](CCCCN)C(=O)N[C@H](C(=O)N[C@@H](CCN)C(=O)N[C@@H](CCCNC(=N)N)C(=O)N[C@@H](Cc2ccc(O)cc2)C(=O)O)CSSC1(C)C)[C@@H](C)O [Example 132, Val-Pic-Ile-Thr-Tyr-Pen-Asn-Arg-Dab-Thr-^DDab-Lys-Cys-Dab-Arg-Tyr] (HELM PEPTIDE1{V.[O=C([C@@H]1CCCCN1[*:1])[*:2]].I.T.Y.[Pen].N.R.[Dab].T.[NCC[C@@H](N[*:1])C(=O)[*:2]].K.C.[Dab].R.Y}$PEPTIDE1,PEPTIDE1,6:R3-13:R3$$$V2.0)",0.125 µg/mL,0.125 µg/mL,0.25 µg/mL,<1%
